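Grown in 96-well plates, cells were treated for 48 hours with each compound at five concentrations. Insufficient inhibition: endpoint recorded as highest concentration tested. Abbreviation: GI50, concentration required for 50% inhibition of growth.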 Activity calls are given as the source filed them. No stated cut-off is given here; in the data, active = GI50 up to about 1.1 µM and inactive = higher.
Legend:
Assay in all cases: NCI-60 cell line screen, 48 h
NCI-H460 = system: NCI-H460
SK-OV-3 = system: SK-OV-3
MDA-N = system: MDA-N
UACC-62 = system: UACC-62
M14 = system: M14
CAKI-1 = system: CAKI-1
HCT-116 = system: HCT-116
786-0 = system: 786-0
KM12 = system: KM12
HCC 2998 = system: HCC 2998
UACC-257 = system: UACC-257
OVCAR-8 = system: OVCAR-8
SNB-75 = system: SNB-75
HL-60 = system: HL-60
MDA-MB-435 = system: MDA-MB-435
HCT-15 = system: HCT-15
SK-MEL-28 = system: SK-MEL-28
SN12C = system: SN12C
OVCAR-5 = system: OVCAR-5
NCI-H522 = system: NCI-H522

Measured: GI50

COC1=C(NC(C)=O)C(=O)c2nc3n(c2C1=O)CCC3
inactive: NCI-H460 27.5 µM | SK-OV-3 41.6 µM | MDA-N 2.83 µM | UACC-62 18.2 µM | M14 18.2 µM | CAKI-1 18.3 µM | HCT-116 15.7 µM | 786-0 19.5 µM | KM12 25.7 µM | HCC 2998 23.7 µM | UACC-257 16.6 µM | OVCAR-8 16.7 µM | SNB-75 17.6 µM | HL-60 10.1 µM | MDA-MB-435 3.64 µM | SK-MEL-28 18.7 µM | SN12C 17.9 µM | OVCAR-5 18.7 µM | NCI-H522 22.5 µM
23.4 µM: HCT-15

Nc1c2ccccc2nc2ccc(C(=O)Nc3ccc(S(N)(=O)=O)cc3)cc12
> 100 µM: HCT-15
inactive: NCI-H460 > 100 µM | SK-OV-3 > 100 µM | MDA-N > 100 µM | UACC-62 > 100 µM | M14 > 100 µM | CAKI-1 > 100 µM | HCT-116 > 100 µM | 786-0 > 100 µM | KM12 > 100 µM | HCC 2998 > 100 µM | UACC-257 > 100 µM | OVCAR-8 > 100 µM | SNB-75 > 100 µM | HL-60 > 100 µM | MDA-MB-435 > 100 µM | SK-MEL-28 > 100 µM | SN12C > 100 µM | OVCAR-5 > 100 µM | NCI-H522 > 100 µM

C1COCCN1.S=C(S)N1CCOCC1
6.7 µM: HCT-15
active: NCI-H522 0.973 µM
inactive: NCI-H460 5.87 µM | SK-OV-3 5.4 µM | MDA-N 94 µM | UACC-62 3.8 µM | M14 12.8 µM | CAKI-1 5.51 µM | HCT-116 2.12 µM | 786-0 10.1 µM | KM12 20.1 µM | HCC 2998 2.59 µM | UACC-257 4.68 µM | OVCAR-8 > 100 µM | SNB-75 7.08 µM | HL-60 1.12 µM | MDA-MB-435 > 100 µM | SK-MEL-28 10.3 µM | SN12C > 100 µM | OVCAR-5 12.5 µM

Cn1c(=O)n2n(c1=O)Cc1cccc3cccc(c13)C2
inactive: NCI-H460 > 100 µM | SK-OV-3 > 100 µM | MDA-N > 100 µM | UACC-62 > 100 µM | M14 > 100 µM | CAKI-1 > 100 µM | HCT-116 > 100 µM | 786-0 > 100 µM | KM12 > 100 µM | HCC 2998 > 100 µM | UACC-257 > 100 µM | OVCAR-8 > 100 µM | SNB-75 > 100 µM | HL-60 1.82 µM | MDA-MB-435 > 100 µM | SK-MEL-28 > 100 µM | SN12C > 100 µM | OVCAR-5 > 100 µM | NCI-H522 > 100 µM
> 100 µM: HCT-15

CCOC(=O)c1c(O)cn2c1[nH]c1cccc3cccc2c31
inactive: NCI-H460 92.7 µM | SK-OV-3 > 100 µM | MDA-N > 100 µM | UACC-62 > 100 µM | M14 > 100 µM | CAKI-1 > 100 µM | HCT-116 > 100 µM | 786-0 52.2 µM | KM12 > 100 µM | HCC 2998 64.7 µM | UACC-257 > 100 µM | OVCAR-8 44.1 µM | SNB-75 37.4 µM | HL-60 57.3 µM | MDA-MB-435 > 100 µM | SK-MEL-28 > 100 µM | SN12C > 100 µM | OVCAR-5 > 100 µM | NCI-H522 46.5 µM
54.6 µM: HCT-15

COc1ccc2c(c1)C(=O)C1(C2)[C@H](c2ccccc2)C2C(=O)c3cc(OC)ccc3C2[C@H]1c1ccccc1 (stereo not given in full)
inactive: NCI-H460 > 100 µM | SK-OV-3 > 100 µM | MDA-N > 100 µM | UACC-62 > 100 µM | M14 > 100 µM | CAKI-1 1.75 µM | HCT-116 > 100 µM | 786-0 > 100 µM | KM12 > 100 µM | HCC 2998 > 100 µM | UACC-257 > 100 µM | OVCAR-8 > 100 µM | SNB-75 92.3 µM | HL-60 6.21 µM | MDA-MB-435 > 100 µM | SK-MEL-28 > 100 µM | SN12C > 100 µM | OVCAR-5 > 100 µM | NCI-H522 > 100 µM
> 100 µM: HCT-15

COC(=O)C1=C(C(=O)OC)C(Cc2ccccc2)(OO)OC1=O (stereo not given)
3.21 µM: HCT-15
inactive: NCI-H460 36.2 µM | SK-OV-3 29 µM | MDA-N 4.03 µM | UACC-62 3.52 µM | M14 3.8 µM | CAKI-1 4.82 µM | HCT-116 3.35 µM | 786-0 2.95 µM | KM12 19.1 µM | HCC 2998 60.1 µM | UACC-257 4.38 µM | OVCAR-8 18.4 µM | SNB-75 9.33 µM | MDA-MB-435 3.52 µM | SK-MEL-28 7.76 µM | SN12C 4.22 µM | OVCAR-5 18.8 µM | NCI-H522 2.32 µM
active: HL-60 0.964 µM

O=C(Nc1ccc(Cl)c(C(F)(F)F)c1)C(=O)c1c(O)c2ccccc2oc1=O
> 100 µM: HCT-15
inactive: NCI-H460 > 100 µM | SK-OV-3 > 100 µM | MDA-N > 100 µM | UACC-62 > 100 µM | M14 > 100 µM | CAKI-1 > 100 µM | HCT-116 > 100 µM | 786-0 > 100 µM | KM12 > 100 µM | HCC 2998 > 100 µM | UACC-257 > 100 µM | OVCAR-8 > 100 µM | SNB-75 > 100 µM | HL-60 > 10 µM | MDA-MB-435 > 100 µM | SK-MEL-28 > 100 µM | SN12C > 100 µM | OVCAR-5 > 100 µM | NCI-H522 > 100 µM

COc1cc(C)c2c(=O)c3ccccc3n(C)c2c1
inactive: NCI-H460 33.3 µM | SK-OV-3 43.1 µM | MDA-N 55.6 µM | UACC-62 20.3 µM | M14 27.2 µM | CAKI-1 31.3 µM | HCT-116 18.5 µM | 786-0 10.6 µM | KM12 23.9 µM | HCC 2998 45 µM | UACC-257 30.3 µM | OVCAR-8 22.6 µM | SNB-75 26.4 µM | HL-60 32.7 µM | MDA-MB-435 40.8 µM | SK-MEL-28 32 µM | SN12C 20.7 µM | OVCAR-5 16.9 µM | NCI-H522 2.54 µM
22.3 µM: HCT-15

Cc1ccccc1N(C)S(=O)(=O)c1ccccc1[N+](=O)[O-]
57.9 µM: HCT-15
inactive: NCI-H460 36.1 µM | SK-OV-3 53.6 µM | MDA-N 45.5 µM | UACC-62 38.8 µM | M14 20.8 µM | CAKI-1 59.3 µM | HCT-116 41.1 µM | 786-0 87.3 µM | KM12 55.7 µM | HCC 2998 51.3 µM | UACC-257 57 µM | OVCAR-8 75 µM | SNB-75 47.6 µM | HL-60 27.9 µM | MDA-MB-435 33.4 µM | SK-MEL-28 54.1 µM | SN12C > 100 µM | OVCAR-5 66.7 µM | NCI-H522 36.1 µM

O=C1c2cc([N+](=O)[O-])sc2C(=O)c2cc([N+](=O)[O-])sc21
1.73 µM: HCT-15
inactive: NCI-H460 19.4 µM | SK-OV-3 10.1 µM | MDA-N 2.34 µM | UACC-62 1.87 µM | M14 3.78 µM | CAKI-1 3.76 µM | HCT-116 1.67 µM | 786-0 2.52 µM | KM12 3.61 µM | HCC 2998 3.05 µM | UACC-257 5.16 µM | OVCAR-8 5.79 µM | SNB-75 12.6 µM | MDA-MB-435 2.1 µM | SK-MEL-28 3.23 µM | SN12C 2.8 µM | OVCAR-5 7.11 µM | NCI-H522 1.44 µM
active: HL-60 0.0957 µM

C/C=C/[C@@H](C(=O)OC)N1C(=O)c2ccccc2[C@H]1O
> 100 µM: HCT-15
inactive: NCI-H460 > 100 µM | SK-OV-3 > 100 µM | MDA-N > 100 µM | UACC-62 > 100 µM | M14 > 100 µM | CAKI-1 > 100 µM | HCT-116 > 100 µM | 786-0 > 100 µM | KM12 > 100 µM | HCC 2998 > 100 µM | UACC-257 > 100 µM | OVCAR-8 > 100 µM | SNB-75 > 100 µM | HL-60 > 100 µM | MDA-MB-435 > 100 µM | SK-MEL-28 > 100 µM | SN12C > 100 µM | OVCAR-5 > 100 µM | NCI-H522 > 100 µM

COc1ccc(C(c2cc(OC)c(OC)c(OC)c2)N2C(=O)CCC2C(=O)O)cc1 (stereo not given)
inactive: NCI-H460 38.8 µM | SK-OV-3 60.1 µM | MDA-N 21.1 µM | UACC-62 51.3 µM | M14 38.3 µM | CAKI-1 79.6 µM | HCT-116 35.5 µM | 786-0 73.1 µM | KM12 35.6 µM | HCC 2998 50.2 µM | UACC-257 > 100 µM | OVCAR-8 41.8 µM | SNB-75 59 µM | HL-60 32 µM | MDA-MB-435 21.8 µM | SK-MEL-28 51.1 µM | SN12C > 100 µM | OVCAR-5 61.5 µM | NCI-H522 52.1 µM
43.9 µM: HCT-15

O=C(CC(c1ccccc1)C1C(=O)NC(=S)NC1=O)c1ccc([N+](=O)[O-])cc1 (stereo not given)
> 100 µM: HCT-15
inactive: NCI-H460 > 100 µM | SK-OV-3 > 100 µM | MDA-N > 100 µM | UACC-62 > 100 µM | M14 > 100 µM | CAKI-1 22.4 µM | HCT-116 76.6 µM | 786-0 > 100 µM | KM12 65.2 µM | HCC 2998 31.6 µM | UACC-257 > 100 µM | OVCAR-8 > 100 µM | SNB-75 > 100 µM | HL-60 > 100 µM | MDA-MB-435 > 100 µM | SK-MEL-28 > 100 µM | SN12C > 100 µM | OVCAR-5 > 100 µM | NCI-H522 > 100 µM

Reference: ChEMBL document CHEMBL1201862, “PubChem BioAssay data set” (2004)
